# Test results reported in US10035808B1, “Isatin peroxo compounds with antibacterial activities and a method of preparing the same” (SHAANXI UNIVERSITY OF SCIENCE AND TECHNOLOGY, priority 2018, dated 2018).
# Key:
# [1] = test system: Enteropathogenic Escherichia coli (EPEC); test: Bacteriostatic circle test, EPEC; assay type: cell-based; conditions: bacteriostatic circle method; strain EPEC; DMSO negative control
# Protocol: (§1) The compounds of the present invention have been tested for antibacterial activity, and a bacteriostatic circle method was used to determine the antibacterial activity.
# (§2) Test strains and medium: Enteropathogenic Escherichia coli (EPEC), Enterotoxigenic Escherichia coli (ETEC), Enteroinvasive Escherichia coli (EIEC), Enterohemorrhagic Escherichia coli (EHEC); beef peptone medium.
# (§3) Preparation of test strains: (1) test strains were placed in culture medium in test tubes in an incubator (bacteria: 37° C., 24 hours; fungi: 28° C., 48 hours), and stored at 0-4° C.; (2) the test strains were inoculated with a small loop in test tubes containing 9 mL sterile water, mixing well to make suspensions, and adjusting the concentration to 10^6-10^7 cfu·mL^−1. The suspensions were used for bacteriostatic circle test.
# (§4) Antibacterial activity determination: solvent dimethyl sulfoxide (DMSO) was used as a negative control, the sizes of antibacterial ring diameters indicated the strength of the antibacterial activities.
# [2] = test system: Enterotoxigenic Escherichia coli (ETEC); test: Bacteriostatic circle test, ETEC; assay type: cell-based; conditions: bacteriostatic circle method; strain ETEC; DMSO negative control
# Protocol: as §1, §2, §3, §4
# [3] = test system: Enterohemorrhagic Escherichia coli (EHEC); test: Bacteriostatic circle test, EHEC; assay type: cell-based; conditions: bacteriostatic circle method; strain EHEC; DMSO negative control
# Protocol: as §1, §2, §3, §4
# [4] = test system: Enteroinvasive Escherichia coli (EIEC); test: Bacteriostatic circle test, EIEC; assay type: cell-based; conditions: bacteriostatic circle method; strain EIEC; DMSO negative control
# Protocol: as §1, §2, §3, §4
# [5] = test system: all the four tested bacteria (EPEC, ETEC, EIEC, EHEC); test: Bacteriostatic circle test, summary over all four tested bacteria; assay type: cell-based, Escherichia coli
# Protocol: as §1, §2, §3, §4
SMILES,Circle Size [1],Circle Size [2],Circle Size [3],Circle Size [4],antibacterial activities (result in words) [5]
"O=C(C1=C(c2ccccc2)OOc2[nH]c3ccc(F)cc3c21)c1ccccc1 [Compound 10, (6-fluoro-3-phenyl-9H-[1,2]dioxino[3,4-b]indol-4-yl)(phenyl)methanone]",10 mm,11 mm,10.5 mm,11.5 mm,
"CC(=O)C1=C(C)OOc2[nH]c3cc(Cl)ccc3c21 [Compound 8, 1-(7-chloro-3-methyl-9H-[1,2]dioxino[3,4-b]indol-4-yl)ethanone]",13 mm,14 mm,13 mm,13.5 mm,
"Cc1ccc2[nH]c3c(c2c1)C(C(=O)c1ccccc1)=C(c1ccccc1)OO3 [Compound 6, (6-methyl-3-phenyl-9H-[1,2]dioxino[3,4-b]indol-4-yl)(phenyl)methanone]",15 mm,15.5 mm,16 mm,16 mm,
"CC(=O)C1=C(C)OOc2[nH]c3ccccc3c21 [Compound 1, 1-(3-methyl-9H-[1,2]dioxino[3,4-b]indol-4-yl)ethanone]",20 mm,19 mm,23 mm,21 mm,good antibacterial activities
"O=C(C1=C(c2ccccc2)OOc2[nH]c3ccccc3c21)c1ccccc1 [Compound 4, phenyl(3-phenyl-9H-[1,2]dioxino[3,4-b]indol-4-yl)methanone]",12 mm,11 mm,12.5 mm,11.5 mm,
"CC(=O)C1=C(C)OOc2[nH]c3c(F)cccc3c21 [Compound 9, 1-(8-fluoro-3-methyl-9H-[1,2]dioxino[3,4-b]indol-4-yl)ethanone]",15 mm,15.5 mm,14.5 mm,14 mm,
"CC(=O)C1=C(C)OOc2[nH]c3ccc(Cl)cc3c21 [Compound 2, 1-(6-chloro-3-methyl-9H-[1,2]dioxino[3,4-b]indol-4-yl)ethanone]",15 mm,15.5 mm,16.5 mm,17 mm,good antibacterial activities
"O=C(C1=C(c2ccccc2)OOc2[nH]c3ccc(Cl)cc3c21)c1ccccc1 [Compound 5, (6-chloro-3-phenyl-9H-[1,2]dioxino[3,4-b]indol-4-yl)(phenyl)methanone]",13 mm,13.5 mm,14.5 mm,14 mm,
"CC(=O)C1=C(C)OOc2[nH]c3ccc(F)cc3c21 [Compound 7, 1-(6-fluoro-3-methyl-9H-[1,2]dioxino[3,4-b]indol-4-yl)ethanone]",17 mm,17.5 mm,17 mm,16.5 mm,
"CC(=O)C1=C(C)OOc2[nH]c3ccc(C)cc3c21 [Compound 3, 1-(3,6-dimethyl-9H-[1,2]dioxino[3,4-b]indol-4-yl)ethanone]",17.5 mm,18 mm,17 mm,17 mm,good antibacterial activities
"O=C(C1=C(c2ccccc2)OOc2[nH]c3cc(Cl)ccc3c21)c1ccccc1 [Compound 11, (7-chloro-3-phenyl-9H-[1,2]dioxino[3,4-b]indol-4-yl)(phenyl)methanone]",12 mm,12.5 mm,11.5 mm,11.5 mm,
"O=C(C1=C(c2ccccc2)OOc2[nH]c3c(F)cccc3c21)c1ccccc1 [Compound 12, (8-fluoro-3-phenyl-9H-[1,2]dioxino[3,4-b]indol-4-yl)(phenyl)methanon]",14 mm,,15 mm,14.5 mm,
